Data reported in patent US4912119A, “Imidazolylguanidine derivatives and compositions containing these compounds” (Heumann Pharma GmBH & Co., priority 1986, dated 1990).
Where a name gives a salt, the structure may show the parent alone.

Columns and labels:
[1] = molecular target: T1, histamine-H2 receptors (Cavia porcellus, UniProt P47747); test: H2-agonistic activity, isolated guinea-pig atrium (method of van Rossum, cumulative dose-response curves); format: biochemical; conditions: read-out: pD2 -value (Atrium) (converted)
T1 construct: determined on isolated atrium and ileum of guinea-pig; from tissue; host or cells: isolated guinea-pig atrium
T1 sequence (P47747 whole entry): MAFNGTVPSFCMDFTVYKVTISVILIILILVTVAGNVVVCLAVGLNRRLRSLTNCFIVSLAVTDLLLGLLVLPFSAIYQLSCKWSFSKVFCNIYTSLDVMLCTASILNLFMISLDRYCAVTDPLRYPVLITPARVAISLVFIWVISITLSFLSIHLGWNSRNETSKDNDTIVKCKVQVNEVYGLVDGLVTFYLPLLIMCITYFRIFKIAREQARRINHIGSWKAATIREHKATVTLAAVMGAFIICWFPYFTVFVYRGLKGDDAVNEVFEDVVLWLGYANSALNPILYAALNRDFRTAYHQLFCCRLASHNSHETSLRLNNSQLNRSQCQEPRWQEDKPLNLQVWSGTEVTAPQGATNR
From the text: (§1) The compounds according to this invention are distinguished by a novel, hitherto unknown and undescribed pharmacological overall activity. The new class of structure according to this invention has both a H1 -antagonistic active component and an H2 -agonistic component. These manifest the pharmacological results shown below. One recognized method of determining the H1 -antagonistic activity is the determination of the pA2 -values in vitro (O. Arunlakshana and H. O. Schild, (1959), "Some Quantitative Uses of Drug Antagonists", Br. J. Pharmac. Chemother, 14, 48-58). To determine the H2 -agonistic activity (pD2 -values), the method of J. M. van Rossum, (1963) is employed, described in "Cumulative Dose-Response Curves II. Technique for the Making of Dose-Response Curves in Isolated Organs and the Evaluation of Drug Parameters", Arch. Intern. Pharmacodyn. Therap. 143, 299-307. |(determined on isolated atrium and ileum of guinea-pig)

[2] = molecular target: T2, histamine H1 receptor (Cavia porcellus, UniProt P31389); test: H1-antagonistic activity in vitro, isolated guinea-pig ileum (method of Arunlakshana and Schild); format: biochemical; conditions: for Kb: read-out: pA2 -value (Ileum) (converted)
T2 construct: determined on isolated atrium and ileum of guinea-pig; from tissue; host or cells: isolated guinea-pig ileum
T2 sequence (P31389 whole entry): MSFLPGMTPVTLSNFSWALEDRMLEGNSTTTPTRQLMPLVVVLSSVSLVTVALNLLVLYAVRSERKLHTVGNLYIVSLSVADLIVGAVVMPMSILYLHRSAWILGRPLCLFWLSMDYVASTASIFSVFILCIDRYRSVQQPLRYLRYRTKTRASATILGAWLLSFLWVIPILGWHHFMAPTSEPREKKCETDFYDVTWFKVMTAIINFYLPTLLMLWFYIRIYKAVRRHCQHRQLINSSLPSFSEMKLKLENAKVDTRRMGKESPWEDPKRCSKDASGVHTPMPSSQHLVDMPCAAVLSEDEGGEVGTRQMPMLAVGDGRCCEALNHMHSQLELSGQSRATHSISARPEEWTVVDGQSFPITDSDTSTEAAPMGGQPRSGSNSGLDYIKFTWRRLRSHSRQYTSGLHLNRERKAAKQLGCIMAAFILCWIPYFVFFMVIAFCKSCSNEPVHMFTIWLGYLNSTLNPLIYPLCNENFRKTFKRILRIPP
From the text: as §1

Row | Structure (SMILES) | EC50 [1] [nM] | Kb [2] [nM] | pA2 -value (Ileum) [2]
1 | CC(CCNC(=N)NCCCc1c[nH]cn1)(c1ccccc1)c1ccccc1 [Example 8, N^1-[3-(1H-Imidazol-4-yl)propyl]-N^2-(3,3-diphenylbutyl)-guanidine hydrochloride] | 123 | 37.2 | 
2 | NC(=NCCCc1c[nH]cn1)NCCC(c1ccc(F)cc1)c1cccnc1 (centres unmarked) [Example 24, N^1-[3-(4-Fluorophenyl)-3-(pyridin-3-yl)propyl]-N^2-[3-(1H-imidazol-4-yl)-propyl]-guanidine] | 8.13 |  | 6.71
3 | N=C(NCCCCc1ccccn1)NCCCc1c[nH]cn1 [Example 2, N^1-[3-(1H-Imidazol-4-yl)propyl]-N^2-[4-(pyridin-2-yl)butyl]-guanidine hydriodide] | 112 | 309 | 
4 | NC(=NCCCc1c[nH]cn1)NCCC(c1cccc(Cl)c1)c1ccccn1 (centres unmarked) [Example 20, N^1-[3-(3-Chlorophenyl)-3-(pyridin-2-yl)propyl]-N^2-[3-(1H-imidazol-4-yl)propyl]-guanidine] | 11.5 |  | 7.05
5 | N=C(NCCCc1c[nH]cn1)NCCC(c1cc(F)cc(F)c1)c1ccccn1 (centres unmarked) [Example 18, N^1-[3-(3,5-Difluorophenyl)-3-(pyridin-2-yl)propyl]-N^2-[3-(1H-imidazol-4-yl)propyl]-guanidine] | 8.91 | 282 | 
6 | N=C(NCCCc1c[nH]cn1)NCCC(c1ccccn1)c1ccc(Cl)cc1Cl (centres unmarked) [Example 16, N^1-[3-(2,4-Dichlorophenyl)-3-(pyridin-2-yl)propyl]-N^2-[3-(1H-imidazol-4-yl)-propyl]-guanidine] | 13.8 | 112 | 
7 | NC(=NCCCc1c[nH]cn1)NCCC(c1ccc(F)c(F)c1)c1ccccn1 (centres unmarked) [Example 17, N^1-[3-(3,4-Difluorophenyl)-3-(pyridin-2-yl)propyl]-N^2-[3-(1H-imidazol-4-yl)propyl]-guanidine] | 7.59 |  | 7.07
8 | N=C(NCCCc1c[nH]cn1)NCCC(c1ccc(Cl)c(Cl)c1)c1ccccn1 (centres unmarked) [Example 14, N^1-[3-(3,4-Dichlorophenyl)-3-(pyridin-2-yl)propyl]-N^2-[3-(1H-imidazol-4-yl)propyl]-guanidine] | 6.31 | 115 | 
9 | N=C(NCCCc1c[nH]cn1)NCCN(Cc1cccs1)c1ccccn1 [Example 4, N^1-[3-(1H-Imidazol-4-yl)propyl]-N^2 [2-[N-(pyridin-2-yl)-N-(thiophen-2-yl-methyl)amino]ethyl]-guanidine hydriodide] | 437 | 9.12 | 
10 | N=C(NCCCc1c[nH]cn1)NCCCN(Cc1ccc(Cl)cc1)c1ccccn1 [Example 3, N^1-[3-(1H-Imidazol-4-yl)propyl]-N^2-[3-[N-(4-chlorobenzyl)-N-(pyridin-2-yl)amino]propyl]-guanidine hydriodide] | 2140 | 2.51 | 
